Assay results as given in patent publication US9034866B2 (Genentech, Inc., priority 2012, dated 2015).

target: nuclear factor-kappa B (NF-kB)-inducing kinase (NIK) (Homo sapiens (Human), UniProt Q99558); assay: NIK Enzyme Inhibition Assay (Transcreener ADP fluorescence polarization); assay type: biochemical; conditions: purified NIK 0.2-1 nM, 10 uM ATP, Morrison's quadratic equation; read-out: NIK ADP-FP (Ki uM)
Procedure: NIK Enzyme Inhibition Assay: The ability of the nuclear factor-kappa B (NF-kB)-inducing kinase (NIK) to catalyze the hydrolysis of adenosine-5′-triphosphate (ATP) was monitored using the Transcreener ADP (adenosine-5′-diphosphate) assay (BellBrook Labs). Purified NIK (0.2-1 nM) derived from a baculovirus-infected insect cell expression system was incubated with test compounds for 1-3.5 hours in 50 mM 2-[4-(2-hydroxyethyl)piperazin-1-yl]ethanesulfonic acid buffer (pH 7.2) containing 10 mM MgCl2, 2 mM dithiothreitol, 10 uM ATP, 0.01% Triton X-100, 0.1% gamma-globulins from bovine blood, 1% dimethylsulfoxide (DMSO), 12 ug/mL ADP antibody and 4 nM ADP-AlexaFluor® 633 tracer. Reactions were quenched by the addition of 20 mM 2,2′,2″,2′″-(ethane-1,2-diyldinitrilo)tetraacetic acid and 0.01% Brij 35. The tracer bound to the antibody was displaced by the ADP generated during the NIK reaction, which causes a decrease in fluorescence polarization that was measured by laser excitation at 633 nm with a Fluorescence Correlation Spectroscopy Plus reader (Evotec AG).

Chain of nuclear factor-kappa B (NF-kB)-inducing kinase (NIK) (Q99558 whole entry): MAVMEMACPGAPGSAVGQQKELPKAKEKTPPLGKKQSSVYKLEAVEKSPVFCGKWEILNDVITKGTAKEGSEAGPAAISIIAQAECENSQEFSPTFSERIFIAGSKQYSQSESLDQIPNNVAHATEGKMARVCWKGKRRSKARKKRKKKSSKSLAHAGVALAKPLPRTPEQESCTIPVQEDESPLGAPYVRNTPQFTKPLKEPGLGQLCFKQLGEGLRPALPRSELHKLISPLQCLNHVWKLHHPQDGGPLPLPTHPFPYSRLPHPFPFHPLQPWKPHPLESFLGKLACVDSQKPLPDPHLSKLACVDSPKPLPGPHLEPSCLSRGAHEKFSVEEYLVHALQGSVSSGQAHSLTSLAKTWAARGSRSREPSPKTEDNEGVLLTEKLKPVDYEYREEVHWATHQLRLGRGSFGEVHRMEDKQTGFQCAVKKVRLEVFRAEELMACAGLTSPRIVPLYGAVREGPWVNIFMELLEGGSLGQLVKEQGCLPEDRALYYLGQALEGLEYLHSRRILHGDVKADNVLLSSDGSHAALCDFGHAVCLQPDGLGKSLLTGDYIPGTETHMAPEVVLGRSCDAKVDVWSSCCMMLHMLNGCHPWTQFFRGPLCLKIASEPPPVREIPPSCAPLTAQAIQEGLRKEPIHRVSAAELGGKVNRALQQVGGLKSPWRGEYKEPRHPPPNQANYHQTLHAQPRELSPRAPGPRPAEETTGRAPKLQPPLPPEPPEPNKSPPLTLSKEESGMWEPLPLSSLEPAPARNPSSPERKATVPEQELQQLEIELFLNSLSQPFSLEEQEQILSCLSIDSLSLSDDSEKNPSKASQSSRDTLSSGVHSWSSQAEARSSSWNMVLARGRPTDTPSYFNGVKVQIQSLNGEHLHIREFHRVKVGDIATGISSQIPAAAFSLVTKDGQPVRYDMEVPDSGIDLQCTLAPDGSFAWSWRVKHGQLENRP

SMILES	Ki [µM]
Cc1c(C(N)=O)nc2n1CCOc1cc(F)c(C#CC(C)(C)O)cc1-2 [Example 34, 8-fluoro-9-(3-hydroxy-3-methyl-but-1-ynyl)-3-methyl-4,5-dihydro-6-oxa-1,3a-diaza-benzo[e]azulene-2-carboxylic acid amide]	0.025
Cn1nc(-c2ccncc2)nc1-c1c(C(N)=O)nc2n1CCOc1cc(F)c(C#CC(C)(C)O)cc1-2 (racemic)	0.635
CC12CCC(O)(C#Cc3ccc4c(c3)-c3nc(C(N)=O)cn3CCO4)C1O2 (stereo not shown) [Example 428]	> 1.2
NC(=O)c1cn2c(n1)-c1cc(C#CC3(O)CCCC3)ccc1OCC2 [Example 1, 9-(1-hydroxy-cyclopentylethynyl)-4,5-di-hydro-6-oxa-1,3a-diaza-benzo[e]azulene-2-carboxylic acid amide]	0.052
Cc1ncccc1C(C)(O)C#Cc1cc2c(cc1F)OCCn1cc(C(N)=O)nc1-2 (stereo not shown) [Example 19, 8-fluoro-9-[3-hydroxy-3-(2-methyl-pyri-din-3-yl)-bul-1-ynyl]-4,5-dihydro-6-oxa-1,3a-diaza-benzo[e]azulene-2-carboxy-lic acid amide]	> 5
CN1CC[C@@](O)(C#Cc2ccc3c(c2)-n2nc(C(N)=O)cc2C2(CCC2)CO3)C1=O [Example 717, (R)-9-((3-hydroxy-1-methyl-2-oxopyrro-lidin-3-yl)ethynyl)-5H-spiro[ben-zo[b]pyrazolo[1,5-d][1,4]oxazepine-4,1′-cyclobutane]-2-carboxamide]	0.0005
Cn1cnc(C(C)(O)C#Cc2cc3c(cc2F)OCCn2cc(C(N)=O)nc2-3)c1 (stereo not shown)	> 5
Cn1cnc(C(C)(O)C#Cc2cc3c(cc2F)OCCc2sc(C(N)=O)nc2-3)c1 (stereo not shown)	> 5
CC(=O)N1CCN(Cc2c(C(N)=O)nc3n2C2CC(C2)c2cc(F)c(C#CC(C)(C)O)cc2-3)CC1 (racemic)	0.026
CC(C)NCc1c(C(N)=O)nc2n1CCOc1ccc(C#CC(C)(C)O)cc1-2	0.0042
CC(C)(O)C#Cc1cc2c(cc1F)OCCn1c-2nc(C(N)=O)c1C(=O)NCC1COC1 [Example 91]	0.004
CC(O)(C#Cc1cc2c(cc1F)OCCc1sc(C(N)=O)nc1-2)CF (stereo not shown) [Example 117, 8-fluoro-9-(4-fluoro-3-hydroxy-3-meth-yl-but-1-ynyl)-4,5-dihydro-6-oxa-3-thia-1-aza-benzo[e]azulene-2-carboxylic acid amide]	0.005
CC(C)(O)C#Cc1ccc2c(c1)-c1nc(C(N)=O)sc1C(N1CCOCC1)CO2 (stereo not shown) [Example 11, 9-(3-hydroxy-3-methyl-but-1-ynyl)-4-morpholin-4-yl-4,5-dihydro-6-oxa-3-thia-1-aza-benzo[e]azulene-2-carboxylic acid amide]	0.416
Cn1nccc1Cc1c(C(N)=O)nc2n1C1CC(C1)c1ccc(C#C[C@@](C)(O)c3ncccn3)cc1-2	0.0013
Cc1cc([C@](C)(O)C#Cc2ccc3c(c2)-c2nc(C(N)=O)cn2CC(CN2CCOCC2)O3)no1 (stereo partly drawn) [Example 597, 10-((R)-3-hydroxy-3-(5-methylisoxazol-3-yl)but-1-yn-1-yl)-6-(morpholinometh-yl)-5,6-dihydrobenzo[f]imidazo[1,2-d][1,4]oxazepine-2-carboxamide]	0.28
Cn1ccnc1C(C)(O)C#Cc1cc2c(cc1F)OCCn1cc(C(N)=O)nc1-2 (stereo not shown)	0.239
CN1CC[C@@](O)(C#Cc2ccc3c(c2)-n2nc(C(N)=O)cc2C2(COC2)CO3)C1=O [Example 714, (R)-9-((3-hydroxy-1-methyl-2-oxopyrro-lidin-3-yl)ethynyl)-5H-spiro[ben-zo[b]pyrazolo[1,5-d][1,4]oxazepine-4,3′-oxetane]-2-carboxamide]	0.0033
Cc1nn(C)cc1C(O)c1c(C(N)=O)nc2n1CCOc1cc(F)c(C#CC(C)(C)O)cc1-2 (stereo not shown) [Example 169]	0.023
CC(O)(C#Cc1cc2c(cc1F)OCCn1cc(C(N)=O)nc1-2)c1ccccn1 (racemic) [Example 54]	0.024
CN1CC[C@](O)(C#Cc2cc3c(cc2F)C2CC(C2)n2c-3nc(C(N)=O)c2C(C)(C)O)C1=O [Example 325, 9-fluoro-3-(1-hydroxy-1-methyl-ethyl)-10-[2-[(3S)-3-hydroxy-1-methyl-2-oxo-pyrrolidin-3-yl]ethynyl]-5,6,7,12-tetra-hydro-5,7-methanobenzo[c]imidazo-[1,2-a]azepine-2-carboxamide]	> 1.2
Cc1nnc([C@](C)(O)C#Cc2ccc3c(c2)-n2nc(C(N)=O)cc2C(C)CO3)o1 (stereo partly shown) [Example 497]	0.039
Cn1cc(C(O)c2c(C(N)=O)nc3n2CCOc2cc(F)c(C#CC(C)(C)O)cc2-3)cn1 (stereo not shown)	0.082
Cc1cc([C@](C)(O)C#Cc2ccc3c(c2)-c2nc(C(N)=O)c(C(=O)N(C)C)n2C2CC3C2)no1 (racemic)	0.03
CN1CC[C@@](O)(C#Cc2cc3c(cc2F)OCC(F)(F)c2sc(C(N)=O)nc2-3)C1=O [Example 641, 4,4,8-trifluoro-9-[2-[(3R)-3-hydroxy-1-methyl-2-oxo-pyrrolidin-3-yl]ethynyl]-5H-[1]benzoxepino[5,4-d]thiazole-2-carboxamide]	0.0002

SMILES	Ki [µM]
CNC(=O)c1c(C(N)=O)nc2n1C1CC(C1)c1cc(F)c(C#CC(C)(O)CO)cc1-2 (stereo not shown)	0.01
CC(C)(O)C#Cc1cc2c(cc1F)OCCn1c-2nc(C(N)=O)c1C(=O)NC1(C)COC1 [Example 60]	0.025
CN(C)C(=O)CC1COc2ccc(C#CC(C)(C)O)cc2-c2nc(C(N)=O)sc21 (stereo not shown) [Example 43, 4-dimethylcarbamoylmethyl-9-(3-hydro-xy-3-methyl-but-1-ynyl)-4,5-dihydro-6-oxa-3-thia-1-aza-benzo[e]azulene-2-car-boxylic acid amide]	0.403
CC(C)(O)C#Cc1cc2c(cc1F)C1CC(C1)n1c-2nc(C(N)=O)c1C(O)c1ccn[nH]1 (stereo not shown) [Example 309, 9-fluoro-10-(3-hydroxy-3-methyl-but-1-ynyl)-3-[hydroxy(1H-pyrazol-5-yl)meth-yl]-5,6,7,12-tetrahydro-5,7-methanoben-zo[c]imidazo[1,2-a]azepine-2-carboxamide]	0.022
CC(C)(O)C#Cc1ccc2c(c1)-c1nc(C(N)=O)c(CN3CCC(C#N)C3)n1CCO2 (stereo not shown)	0.0019
COCC(C)(O)C#Cc1ccc2c(c1)-c1nc(C(N)=O)cn1C1CC2C1 (stereo not shown)	0.0097
Cn1cncc1C(O)c1c(C(N)=O)nc2n1C1CC(C1)c1cc(F)c(C#CC3(O)CCCC3)cc1-2 (stereo not shown)	0.014
CC(O)(C#Cc1cc2c(cc1F)OCCn1cc(C(N)=O)nc1-2)c1cc(CO)on1 (stereo not shown) [Example 32, 8-fluoro-9-[3-hydroxy-3-(5-hydroxymeth-yl-isoxazol-3-yl)-but-1-ynyl]-4,5-dihy-dro-6-oxa-1,3a-diaza-benzo[c]azulene-2-carboxylic acid amide]	0.002
CC(C)(O)C#Cc1cc2c(cc1F)OCCn1c-2nc(C(N)=O)c1C#N [Example 33, 3-cyano-8-fluoro-9-(3-hydroxy-3-methyl-but-1-ynyl)-4,5-dihydro-6-oxa-1,3a-diaza-benzo[e]azulene-2-carboxylic acid amide]	0.172
CC(O)(C#Cc1cc2c(cc1F)OCCn1cc(C(N)=O)nc1-2)c1c[nH]cn1 (stereo not shown)	0.001
CC(O)(C#Cc1ccc2c(c1)-n1nc(C(N)=O)cc1CCO2)C1CCCO1 (stereo not shown) [Example 696]	1
CC(O)(C#Cc1cc2c(cc1F)OCCn1cc(C(N)=O)nc1-2)c1ncc(F)cn1 (stereo not shown)	4
Cn1nccc1Cc1c(C(N)=O)nc2n1C1CC(C1)c1cc(F)c(C#CC(C)(C)O)cc1-2	0.0024
CC(C)(O)C#Cc1cc2c(cc1F)C1CC(C1)n1c-2nc(C(N)=O)c1-c1nc(-c2cccnc2)n[nH]1 (racemic) [Example 207]	0.00077
Cc1cc([C@](C)(O)C#Cc2ccc3c(c2)-n2nc(C(N)=O)cc2CCO3)no1	0.0066
CC(C)(O)C#Cc1ccc2c(c1)-c1nc(C(N)=O)cn1CCO2 [Example 2, 9-(3-hydroxy-3-methyl-but-1-ynyl)-4,5-dihydro-6-oxa-1,3a-diaza-benzo[e]azu-lene-2-carboxylic acid amide]	0.319
Cc1cc(C(C)(O)C#Cc2cc3c(cc2Cl)OCCn2cc(C(N)=O)nc2-3)no1 (racemic)	> 5
CC(C)(O)C#Cc1cc2c(cc1Cl)OCCn1cc(C(N)=O)nc1-2 (racemic) [Example 186]	> 5
CN(C)C1COc2cc(F)c(C#CC(C)(C)O)cc2-c2nc(C(N)=O)sc21 (racemic)	> 5
CC(C)(O)C#Cc1cc2c(cc1F)C1CC(C1)c1c-2nc(C(N)=O)n1Cc1ccccc1Cl	0.0036
CN(C)C(=O)C(C)(O)C#Cc1cc2c(cc1F)OCCn1cc(C(N)=O)nc1-2 (racemic) [Example 51]	0.721
CC(=O)NC1COc2ccc(C#CC(C)(C)O)cc2-c2nc(C(N)=O)sc21 (stereo not shown) [Example 26, 4-acetylamino-9-(3-hydroxy-3-methyl-but-1-ynyl)-4,5-dihydro-6-oxa-3-thia-1-aza-benzo[e]azulene-2-carboxylic acid amide]	0.21
COCC1(CNC(=O)c2c(C(N)=O)nc3n2CCOc2cc(F)c(C#CC(C)(C)O)cc2-3)CC1 (racemic) [Example 69]	0.041
CC(C)(O)C#Cc1cc2c(cc1F)OCCn1c-2nc(C(N)=O)c1C(=O)NC1COC1 (racemic) [Example 59]	0.006

same assay, conditions: read-out: NIK ADP-FP (Ki uM)

SMILES	Ki [µM]
CC(O)(C#Cc1cc2c(cc1F)OCCn1cc(C(N)=O)nc1-2)c1cncnc1 (stereo not shown) [Example 18, 8-fluoro-9-(3-hydroxy-3-pyrimidin-5-yl-but-1-ynyl)-4,5-dihydro-6-oxa-1,3a-diaza-benzo[e]azulene-2-carboxylic acid amide]	> 5
